Experimental data from paper PMC13198932, “Pyrazolone-based ERO1 inhibitors in ERO1-driven triple-negative breast cancer and SEPN1-related myopathy: Structure–activity relationship and therapeutic potential” (Pharmacological research, 2025).

What was measured:
recombinant ERO1A = target: T1, recombinant ERO1A (Mus musculus, UniProt Q8R180); design: method as in PMID 39962052; conditions: SAR of I1–I23, Fig. 8A; cited from earlier work
T1 construct: GST-SMT3-mouse ERO1A (residues 43–464); GST-SMT3 (GST-SUMO) (N, cleaved yes); made in house; host or cells: E. coli Rosetta DE3 (Novagen)
T1 sequence (Q8R180 43-464): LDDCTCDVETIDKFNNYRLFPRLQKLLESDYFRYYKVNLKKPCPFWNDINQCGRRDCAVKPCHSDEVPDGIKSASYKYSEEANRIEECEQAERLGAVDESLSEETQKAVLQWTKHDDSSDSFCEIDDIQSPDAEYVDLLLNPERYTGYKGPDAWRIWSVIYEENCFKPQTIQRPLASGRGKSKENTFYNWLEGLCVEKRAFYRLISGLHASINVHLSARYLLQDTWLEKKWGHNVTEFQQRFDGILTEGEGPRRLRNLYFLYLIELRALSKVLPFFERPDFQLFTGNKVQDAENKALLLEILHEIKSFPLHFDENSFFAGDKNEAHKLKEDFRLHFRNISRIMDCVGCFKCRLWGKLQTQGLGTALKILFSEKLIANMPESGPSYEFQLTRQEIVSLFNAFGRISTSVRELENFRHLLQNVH

MDAMB231 cells = assay: MTS assay of metabolic activity in MDAMB231 cells; format: cell-based, human; conditions: MDAMB231, dose-response, 24 h, 1 % FBS
Method: Six thousand cells (MDAMB231 and E0771) per well were seeded in 96-well plates and cultured in medium containing 1 % FBS. Cells were treated with varying concentrations of compounds and, after 24 h, incubated with MTS [3-(4,5-dimethylthiazol-2-yl)-5-(3-carboxymethoxyphenyl)-2-(4 sulfophenyl)2Htetrazolium]and PMS (phenazine methosulfate), following the instructions of the CellTiter 96® Aqueous Non-Radioactive Cell Proliferation Assay (Promega). Measurements were performed using a TECAN Infinite M200 plate reader with […] at 490 nm.

recombinant PDI = recombinant PDI (Homo sapiens, UniProt P07237); assay: PDI activity assay (insulin transhydrogenase / insulin turbidity assay); format: biochemical; conditions: 25 μM, 15 min incubation
Sequence of recombinant PDI (P07237 18-508, species assumed): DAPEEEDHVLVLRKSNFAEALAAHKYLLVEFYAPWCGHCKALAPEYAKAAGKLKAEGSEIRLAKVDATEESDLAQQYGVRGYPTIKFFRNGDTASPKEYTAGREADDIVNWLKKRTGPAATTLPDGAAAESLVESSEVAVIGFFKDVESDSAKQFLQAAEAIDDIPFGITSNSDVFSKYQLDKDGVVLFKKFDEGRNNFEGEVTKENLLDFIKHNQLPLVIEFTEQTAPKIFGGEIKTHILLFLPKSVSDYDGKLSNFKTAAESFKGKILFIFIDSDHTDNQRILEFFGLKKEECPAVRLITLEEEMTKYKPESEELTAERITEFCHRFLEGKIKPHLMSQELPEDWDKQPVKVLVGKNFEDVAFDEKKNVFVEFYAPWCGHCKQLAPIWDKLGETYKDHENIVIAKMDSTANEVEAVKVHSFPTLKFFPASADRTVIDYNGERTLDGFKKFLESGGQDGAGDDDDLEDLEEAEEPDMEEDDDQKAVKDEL
Method: PDI activity was assessed using an insulin transhydrogenase assay. Bovine insulin (1 mg/mL) in sodium phosphate buffer, pH 7.0, containing 2 mM EDTA, was incubated with 1.4 μM recombinant PDI in the presence of vehicle (1 % DMSO) or various concentrations of isoquercetin (30 or 60 μM), EN460, I2, I26, or I29 (1, 5, or 25 μM) for 15 min. The turbidimetric assay of insulin disulfide reduction by PDI was initiated by adding 1 mM dithiothreitol, and the reaction was monitored at 650 nm for 80 min. PDI activity is presented as a percentage of the vehicle control.

E0771 tumors = tested on: E0771 tumors; design: method as in PMID 35853086, PMID 36063727, PMID 33531624, PMID 39962052; conditions: previous studies; cited from earlier work
[1] = target: T2, Human monoamine oxidase A (Mao-A) (Homo sapiens, UniProt P21397); assay: Mao-A activity assay (commercial kit, p-tyramine, H2O2 fluorimetry); format: biochemical; conditions: 25 μM, 10 min incubation
T2 construct: purchased Sigma-Aldrich
T2 sequence (P21397 1-527): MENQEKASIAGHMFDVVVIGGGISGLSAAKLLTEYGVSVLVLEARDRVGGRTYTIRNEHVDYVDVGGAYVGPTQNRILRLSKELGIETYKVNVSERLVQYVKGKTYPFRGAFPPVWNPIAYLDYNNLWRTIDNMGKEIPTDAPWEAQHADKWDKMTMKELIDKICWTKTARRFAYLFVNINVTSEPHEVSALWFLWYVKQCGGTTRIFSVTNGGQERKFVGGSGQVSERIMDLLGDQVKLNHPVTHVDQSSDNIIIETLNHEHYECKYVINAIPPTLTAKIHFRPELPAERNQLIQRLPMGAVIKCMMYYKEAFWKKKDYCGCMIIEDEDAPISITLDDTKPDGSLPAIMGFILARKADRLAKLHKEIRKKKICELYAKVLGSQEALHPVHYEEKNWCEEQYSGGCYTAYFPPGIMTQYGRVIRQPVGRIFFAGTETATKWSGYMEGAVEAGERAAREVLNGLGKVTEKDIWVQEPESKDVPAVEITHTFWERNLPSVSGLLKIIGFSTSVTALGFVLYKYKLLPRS
Method: Mao-A activity was measured using a commercial assay kit according to the manufacturer’s instructions. Mao-A (0.837 μM) was incubated with vehicle (1 % DMSO), Clorgyline (50 μM), or various concentrations (1, 5, or 25 μM) of EN460, I2, I26, or I29 for 10 min. Mao-A catalyzes the oxidative deamination of p-tyramine, generating H2O2, which was quantified fluorimetrically (λex= 530; λem= 585 nm). Mao-A activity is presented as a percentage of the vehicle control.

Structure (SMILES): O=C1/C(=C/c2ccc(-c3ccccc3)o2)C(C(F)(F)F)=NN1c1ccc(Cl)cc1Cl [I2]
- ERO1 inhibitory activity (in words) (recombinant ERO1A): retained activity
- IC50 (recombinant ERO1A): 8 µM
- metabolic activity (MTS assay) (MDAMB231 cells): significantly reduced metabolic activity
- PDI activity (percentage of the vehicle control) (recombinant PDI): inhibited PDI activity
- VEGFA levels (E0771 tumors): reduced VEGFA levels
- Mao-A activity (percentage of the vehicle control) [1]: inhibited Mao-A activity
